{
  "source": "patent US20080281105A1",
  "about": "“Novel Quinolinium Salts and Derivatives” (IMMUSOL INCORPORATED, priority 2005, published 2008)",
  "key": {"[1]": {"test_system": "HCT-116", "experiment": "Liquid growth culture with and without added glucose (alamarBlue)", "assay_type": "cell-based", "conditions": "Homo sapiens", "text": "(§1) The method is as follows:"}, "[2]": {"test_system": "Panc-1", "experiment": "Liquid growth culture with and without added glucose (alamarBlue)", "assay_type": "cell-based", "conditions": "Homo sapiens", "text": "as §1"}, "[3]": {"test_system": "Pc3M/N", "experiment": "Liquid growth culture with and without added glucose (alamarBlue)", "assay_type": "cell-based", "conditions": "Homo sapiens, PC-3M", "text": "as §1"}, "[4]": {"test_system": "T47D", "experiment": "Cell growth in liquid culture (alamarBlue)", "conditions": "Homo sapiens, 72 h, read-out: IC50 (uM) Liquid culture"}, "[5]": {"test_system": "SKBR3", "experiment": "Cell growth in liquid culture (alamarBlue)", "conditions": "Homo sapiens, SK-BR-3, 72 h, read-out: IC50 (uM) Liquid culture"}, "[6]": {"test_system": "MDA-231", "experiment": "Cell growth in liquid culture (alamarBlue)", "conditions": "Homo sapiens, MDA-MB-231, 72 h, read-out: IC50 (uM) Liquid culture"}, "[7]": {"test_system": "HCT116-P53(−)", "experiment": "Cell growth in liquid culture (alamarBlue)", "conditions": "72 h, read-out: IC50 (uM) Liquid culture"}, "[8]": {"test_system": "Pc3M/N", "experiment": "Cell growth in liquid culture (alamarBlue)", "conditions": "Homo sapiens, PC-3M, 72 h, read-out: IC50 (uM) Liquid culture"}, "[9]": {"test_system": "DU145", "experiment": "Cell growth in liquid culture (alamarBlue)", "conditions": "Homo sapiens, DU-145, 72 h, read-out: IC50 (uM) Liquid culture"}, "[10]": {"test_system": "ASPC-1", "experiment": "Cell growth in liquid culture (alamarBlue)", "conditions": "Homo sapiens, ASPC1, 72 h, read-out: IC50 (uM) Liquid culture"}, "[11]": {"test_system": "PA-1", "experiment": "Cell growth in liquid culture (alamarBlue)", "conditions": "Homo sapiens, PA-1, 72 h, read-out: IC50 (uM) Liquid culture"}, "[12]": {"test_system": "SK-OV-3", "experiment": "Cell growth in liquid culture (alamarBlue)", "conditions": "Homo sapiens, SK-OV-3, 72 h, read-out: IC50 (uM) Liquid culture"}, "[13]": {"test_system": "Caov-3", "experiment": "Cell growth in liquid culture (alamarBlue)", "conditions": "Homo sapiens, Caov-3, 72 h, read-out: IC50 (uM) Liquid culture"}, "[14]": {"test_system": "UACC257", "experiment": "Cell growth in liquid culture (alamarBlue)", "conditions": "Homo sapiens, UACC-257, 72 h, read-out: IC50 (uM) Liquid culture"}, "[15]": {"test_system": "A2058", "experiment": "Cell growth in liquid culture (alamarBlue)", "conditions": "Homo sapiens, A2058, 72 h, read-out: IC50 (uM) Liquid culture"}, "[16]": {"test_system": "IMR90", "experiment": "Cell growth in liquid culture (alamarBlue)", "conditions": "Homo sapiens, IMR-90, 72 h, read-out: IC50 (uM) Liquid culture"}, "[17]": {"test_system": "MCF7", "experiment": "Cell growth in soft agar culture (alamarBlue)", "conditions": "Homo sapiens, MCF7, 168 h, read-out: IC50 (uM) Soft agar"}, "[18]": {"test_system": "T47D", "experiment": "Cell growth in soft agar culture (alamarBlue)", "conditions": "Homo sapiens, 168 h, read-out: IC50 (uM) Soft agar"}, "[19]": {"test_system": "MDA-231", "experiment": "Cell growth in soft agar culture (alamarBlue)", "conditions": "Homo sapiens, MDA-MB-231, 168 h, read-out: IC50 (uM) Soft agar"}, "[20]": {"test_system": "MDA_MB-435", "experiment": "Cell growth in soft agar culture (alamarBlue)", "conditions": "Homo sapiens, MDA-MB-435, 168 h, read-out: IC50 (uM) Soft agar"}, "[21]": {"test_system": "HCT116-P53(−)", "experiment": "Cell growth in soft agar culture (alamarBlue)", "conditions": "168 h, read-out: IC50 (uM) Soft agar"}, "[22]": {"test_system": "HT29", "experiment": "Cell growth in soft agar culture (alamarBlue)", "conditions": "Homo sapiens, HT-29, 168 h, read-out: IC50 (uM) Soft agar"}, "[23]": {"test_system": "SW480", "experiment": "Cell growth in soft agar culture (alamarBlue)", "conditions": "Homo sapiens, SW480, 168 h, read-out: IC50 (uM) Soft agar"}, "[24]": {"test_system": "Pc3M/N", "experiment": "Cell growth in soft agar culture (alamarBlue)", "conditions": "Homo sapiens, PC-3M, 168 h, read-out: IC50 (uM) Soft agar"}, "[25]": {"test_system": "PC3", "experiment": "Cell growth in soft agar culture (alamarBlue)", "conditions": "Homo sapiens, PC-3, 168 h, read-out: IC50 (uM) Soft agar"}, "[26]": {"test_system": "A2780", "experiment": "Cell growth in soft agar culture (alamarBlue)", "conditions": "Homo sapiens, A2780, 168 h, read-out: IC50 (uM) Soft agar"}, "[27]": {"test_system": "OVCAR-8", "experiment": "Cell growth in soft agar culture (alamarBlue)", "conditions": "Homo sapiens, OVCAR-8, 168 h, read-out: IC50 (uM) Soft agar"}, "[28]": {"test_system": "SK-OV-3", "experiment": "Cell growth in soft agar culture (alamarBlue)", "conditions": "Homo sapiens, SK-OV-3, 168 h, read-out: IC50 (uM) Soft agar"}, "[29]": {"test_system": "UACC62", "experiment": "Cell growth in soft agar culture (alamarBlue)", "conditions": "Homo sapiens, UACC-62, 168 h, read-out: IC50 (uM) Soft agar"}},
  "data": [
    {"smiles": "Cc1cc(/C=C/c2ccc3cc(N(C)C)ccc3[n+]2C)c(C)n1-c1ccccc1", "note": "[Example 1, Pyrvinium Phosphate]", "values": [
      {"measurement": "IC80", "setting": "[1]; HCT-116, HCT-116, (+) Glu", "result": 1000, "unit": "nM"},
      {"measurement": "IC80", "setting": "[1]; HCT-116, HCT-116, (−) Glu", "result": 100, "unit": "nM"},
      {"measurement": "IC80", "setting": "[2]; PANC-1, Panc-1, (+) Glu", "result": "> 1000", "unit": "nM"},
      {"measurement": "IC80", "setting": "[2]; PANC-1, Panc-1, (−) Glu", "result": 100, "unit": "nM"},
      {"measurement": "IC80", "setting": "[3]; (+) Glu", "result": 1000, "unit": "nM"},
      {"measurement": "IC80", "setting": "[3]; (−) Glu", "result": 100, "unit": "nM"},
      {"measurement": "IC50", "setting": "[4]", "result": "~0.03", "unit": "µM"},
      {"measurement": "IC50", "setting": "[5]", "result": "~1", "unit": "µM"},
      {"measurement": "IC50", "setting": "[6]", "result": "0.1 to 0.3", "unit": "µM"},
      {"measurement": "IC50", "setting": "[7]", "result": "> 1", "unit": "µM"},
      {"measurement": "IC50", "setting": "[8]", "result": "> 1", "unit": "µM"},
      {"measurement": "IC50", "setting": "[9]", "result": "> 1", "unit": "µM"},
      {"measurement": "IC50", "setting": "[10]", "result": "0.3 to 1", "unit": "µM"},
      {"measurement": "IC50", "setting": "[11]", "result": "0.03 to 0.1", "unit": "µM"},
      {"measurement": "IC50", "setting": "[12]", "result": "0.1 to 0.3", "unit": "µM"},
      {"measurement": "IC50", "setting": "[13]", "result": "0.03 to 0.1", "unit": "µM"},
      {"measurement": "IC50", "setting": "[14]", "result": "~0.1", "unit": "µM"},
      {"measurement": "IC50", "setting": "[15]", "result": "0.1 to 0.3", "unit": "µM"},
      {"measurement": "IC50", "setting": "[16]", "result": "0.1 to 0.3", "unit": "µM"},
      {"measurement": "IC50", "setting": "[17]", "result": "< 0.03", "unit": "µM"},
      {"measurement": "IC50", "setting": "[18]", "result": "< 0.03", "unit": "µM"},
      {"measurement": "IC50", "setting": "[19]", "result": "< 0.03", "unit": "µM"},
      {"measurement": "IC50", "setting": "[20]", "result": "0.03 to 0.1", "unit": "µM"},
      {"measurement": "IC50", "setting": "[21]", "result": "0.1 to 0.3", "unit": "µM"},
      {"measurement": "IC50", "setting": "[22]", "result": "0.03 to 0.1", "unit": "µM"},
      {"measurement": "IC50", "setting": "[23]", "result": "0.3 to 1", "unit": "µM"},
      {"measurement": "IC50", "setting": "[24]", "result": "~0.3", "unit": "µM"},
      {"measurement": "IC50", "setting": "[25]", "result": "0.1 to 0.3", "unit": "µM"},
      {"measurement": "IC50", "setting": "[26]", "result": "0.03 to 0.1", "unit": "µM"},
      {"measurement": "IC50", "setting": "[27]", "result": "0.03 to 0.1", "unit": "µM"},
      {"measurement": "IC50", "setting": "[28]", "result": "0.03 to 0.1", "unit": "µM"},
      {"measurement": "IC50", "setting": "[29]", "result": "0.03 to 0.1", "unit": "µM"}
    ]}
  ]
}
